Assays:
[1] = target: T1, nAChR subtype alpha3beta2 (Homo sapiens, UniProt P17787+P32297); test: nAChR agonist response (evoked current compared with ACh response) in cells expressing a nAChR subtype; assay type: cell-based; conditions: response relative to ACh response
T1 construct: expressed in transfected cells
From the text: (§1) In general, a nAChR agonist is a full agonist if it evokes a response upon binding to a given receptor that is equal or greater to that of ACh.
(§2) nAChR agonist response, from which receptor activation can be determined can, for example, be generated using an appropriate cell-based assay. Cells designed to express a particular nAChR receptor subtype and generate an electrical current response when bound to and activated by a nAChR agonist can be used to characterize the agonist profile of a compound and the amount of receptor activation thus determined. An example of a generic protocol is described below.
(§3) Cells that express a particular human nAChR subtype are first exposed to ACh. ACh binds and activates the receptor, thereby evoking a current. The concentration of the ACh is chosen to elicit the maximum response of the receptor (e.g., 1280 micromolar ACh). This current is recorded as the ACh response and serves as the 100% nAChR agonist response and to which responses to other nAChR agonists are compared. […] The current evoked by exposure to the nAChR agonist is measured and recorded for each nAChR concentration. […] The nAChR agonist response is then calculated as a percentage of the ACh response.
(§4) A nAChR agonist evoking a response equal to or greater than the maximum ACh response determined at the same receptor type is a full agonist. […]

nAChR subtype alpha7 = target: T2, nAChR subtype alpha7 (Homo sapiens, UniProt P36544); test: as above; assay type: cell-based; conditions: for agonist characterization at nAChR subtype alpha7: response relative to ACh response
T2 construct: expressed in transfected cells
T2 sequence (P36544 23-502): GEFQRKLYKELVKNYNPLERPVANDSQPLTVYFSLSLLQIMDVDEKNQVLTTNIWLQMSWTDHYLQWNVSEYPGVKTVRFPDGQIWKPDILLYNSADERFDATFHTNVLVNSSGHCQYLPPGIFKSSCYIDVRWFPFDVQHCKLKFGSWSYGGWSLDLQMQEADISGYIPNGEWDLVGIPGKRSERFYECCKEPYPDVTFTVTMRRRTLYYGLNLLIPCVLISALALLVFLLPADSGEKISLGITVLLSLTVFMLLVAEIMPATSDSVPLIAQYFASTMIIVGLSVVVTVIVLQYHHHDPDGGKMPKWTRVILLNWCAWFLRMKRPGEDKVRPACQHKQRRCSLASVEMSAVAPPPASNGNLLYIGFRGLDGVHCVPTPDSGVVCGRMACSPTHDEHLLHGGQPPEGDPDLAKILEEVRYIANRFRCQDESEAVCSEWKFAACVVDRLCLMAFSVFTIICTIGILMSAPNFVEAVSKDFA
From the text: as §1, §2
(§5) Cells that express a particular human nAChR subtype are first exposed to ACh. ACh binds and activates the receptor, thereby evoking a current. […] This current is recorded as the ACh response and serves as the 100% nAChR agonist response and to which responses to other nAChR agonists are compared. After washing, the cells are exposed to a nAChR agonist at various concentrations (e.g., 0.1, 0.3, 1, 3, 10, 30, 100, and 300 micromolar). The current evoked by exposure to the nAChR agonist is measured and recorded for each nAChR concentration. This nAChR agonist response data is then normalized to unity versus the maximal ACh evoked current and plotted as a function of the logarithm of the nAChR agonist concentration. The nAChR agonist response is then calculated as a percentage of the ACh response.
(§6) A nAChR agonist evoking a response equal to or greater than the maximum ACh response determined at the same receptor type is a full agonist. In some cases, a nAChR agonist evoking a response of less than 100% of the ACh response may still be characterized a full agonist, taking into account experimental variability. […] In some cases, a nAChR agonist evoking 90% of the ACh response or greater is considered a full agonist. […] In some cases, a nAChR agonist evoking 80% of the ACh response or greater is considered a full agonist.

[2] = target: T3, nAChR subtype alpha4alpha6beta2 (Homo sapiens, UniProt P17787+P43681+Q15825); test: as above; assay type: cell-based; conditions: response relative to ACh response
T3 construct: expressed in transfected cells
T3 sequence (P43681 29-627 limits assumed): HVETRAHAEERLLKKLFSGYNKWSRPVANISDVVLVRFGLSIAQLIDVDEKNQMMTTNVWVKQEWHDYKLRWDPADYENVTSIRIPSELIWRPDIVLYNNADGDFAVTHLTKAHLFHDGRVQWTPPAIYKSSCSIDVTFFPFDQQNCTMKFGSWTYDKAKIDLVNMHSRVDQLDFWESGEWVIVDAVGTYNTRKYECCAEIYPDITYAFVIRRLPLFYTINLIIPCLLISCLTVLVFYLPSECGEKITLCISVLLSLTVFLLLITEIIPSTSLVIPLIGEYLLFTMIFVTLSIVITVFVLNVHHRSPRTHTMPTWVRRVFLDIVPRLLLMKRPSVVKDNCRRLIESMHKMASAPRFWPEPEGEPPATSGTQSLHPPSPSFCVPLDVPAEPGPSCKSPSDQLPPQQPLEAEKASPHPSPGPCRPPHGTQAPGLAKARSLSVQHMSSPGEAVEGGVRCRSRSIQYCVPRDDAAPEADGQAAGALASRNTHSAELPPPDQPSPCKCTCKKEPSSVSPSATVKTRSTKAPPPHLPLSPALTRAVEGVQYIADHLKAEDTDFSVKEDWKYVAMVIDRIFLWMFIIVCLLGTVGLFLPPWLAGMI
T3 sequence (Q15825 26-494): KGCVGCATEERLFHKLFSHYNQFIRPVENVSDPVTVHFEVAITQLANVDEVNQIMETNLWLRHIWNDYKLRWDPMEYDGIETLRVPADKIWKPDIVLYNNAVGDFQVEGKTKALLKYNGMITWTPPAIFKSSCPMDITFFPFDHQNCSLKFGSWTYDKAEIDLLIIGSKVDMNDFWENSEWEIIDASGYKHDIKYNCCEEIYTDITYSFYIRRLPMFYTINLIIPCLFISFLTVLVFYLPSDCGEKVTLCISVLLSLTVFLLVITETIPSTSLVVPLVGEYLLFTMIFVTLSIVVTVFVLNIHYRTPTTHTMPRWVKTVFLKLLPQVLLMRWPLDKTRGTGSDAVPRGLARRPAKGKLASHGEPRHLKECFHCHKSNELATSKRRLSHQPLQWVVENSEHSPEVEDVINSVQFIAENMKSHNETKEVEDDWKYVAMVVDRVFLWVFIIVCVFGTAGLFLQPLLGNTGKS
T3 sequence (P17787 26-502): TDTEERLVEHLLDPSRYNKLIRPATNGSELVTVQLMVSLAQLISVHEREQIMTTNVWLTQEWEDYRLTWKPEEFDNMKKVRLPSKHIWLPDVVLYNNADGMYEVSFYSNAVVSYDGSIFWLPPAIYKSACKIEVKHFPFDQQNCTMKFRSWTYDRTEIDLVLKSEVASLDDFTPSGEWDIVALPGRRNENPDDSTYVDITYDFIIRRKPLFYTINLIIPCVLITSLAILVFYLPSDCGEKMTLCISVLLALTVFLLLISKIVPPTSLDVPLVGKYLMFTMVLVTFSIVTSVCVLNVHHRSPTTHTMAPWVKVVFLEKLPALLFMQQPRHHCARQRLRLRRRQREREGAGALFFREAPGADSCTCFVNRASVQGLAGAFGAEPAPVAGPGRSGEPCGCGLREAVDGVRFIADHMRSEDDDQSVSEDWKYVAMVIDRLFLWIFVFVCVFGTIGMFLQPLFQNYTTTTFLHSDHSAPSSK
From the text: as §1, §2, §5, §6

[3] = target: T4, nAChR subtype alpha3beta4 (Homo sapiens, UniProt P30926+P32297); test: as above; assay type: cell-based; conditions: response relative to ACh response
T4 construct: expressed in transfected cells
T4 sequence (P32297 32-505): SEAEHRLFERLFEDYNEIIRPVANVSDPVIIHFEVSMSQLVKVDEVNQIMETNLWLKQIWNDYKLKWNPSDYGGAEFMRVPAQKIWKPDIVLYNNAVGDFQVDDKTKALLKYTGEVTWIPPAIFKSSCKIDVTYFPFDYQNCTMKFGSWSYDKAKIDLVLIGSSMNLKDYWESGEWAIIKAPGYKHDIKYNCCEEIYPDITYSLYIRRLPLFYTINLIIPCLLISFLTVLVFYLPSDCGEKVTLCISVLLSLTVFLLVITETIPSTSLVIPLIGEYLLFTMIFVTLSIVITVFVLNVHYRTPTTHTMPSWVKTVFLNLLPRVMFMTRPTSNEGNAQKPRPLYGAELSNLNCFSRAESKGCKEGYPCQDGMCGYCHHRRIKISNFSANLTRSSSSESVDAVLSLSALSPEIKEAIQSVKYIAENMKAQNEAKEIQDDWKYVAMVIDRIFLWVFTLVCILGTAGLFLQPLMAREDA
T4 sequence (P30926 22-498): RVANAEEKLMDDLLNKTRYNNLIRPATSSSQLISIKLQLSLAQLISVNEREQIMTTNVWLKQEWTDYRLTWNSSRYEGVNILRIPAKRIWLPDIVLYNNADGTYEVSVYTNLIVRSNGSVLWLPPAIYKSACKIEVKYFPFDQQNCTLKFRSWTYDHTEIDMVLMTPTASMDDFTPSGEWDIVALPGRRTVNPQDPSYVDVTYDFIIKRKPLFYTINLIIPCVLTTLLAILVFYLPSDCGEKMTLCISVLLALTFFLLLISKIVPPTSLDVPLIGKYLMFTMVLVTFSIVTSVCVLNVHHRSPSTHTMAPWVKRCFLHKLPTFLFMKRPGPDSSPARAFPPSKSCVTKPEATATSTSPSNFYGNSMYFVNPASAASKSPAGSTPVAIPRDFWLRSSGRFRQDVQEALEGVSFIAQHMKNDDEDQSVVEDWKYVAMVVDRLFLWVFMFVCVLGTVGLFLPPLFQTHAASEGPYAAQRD
From the text: as §1, §2, §5, §6

[4] = system: T5, nAChR subtype alpha3alpha5beta4 (Homo sapiens); test: as above; assay type: cell-based; conditions: response relative to ACh response
T5 construct: expressed in transfected cells
T5 sequence (P32297 32-505): as the sequence (P32297 32-505) above
T5 sequence (P30532 23-468 partner): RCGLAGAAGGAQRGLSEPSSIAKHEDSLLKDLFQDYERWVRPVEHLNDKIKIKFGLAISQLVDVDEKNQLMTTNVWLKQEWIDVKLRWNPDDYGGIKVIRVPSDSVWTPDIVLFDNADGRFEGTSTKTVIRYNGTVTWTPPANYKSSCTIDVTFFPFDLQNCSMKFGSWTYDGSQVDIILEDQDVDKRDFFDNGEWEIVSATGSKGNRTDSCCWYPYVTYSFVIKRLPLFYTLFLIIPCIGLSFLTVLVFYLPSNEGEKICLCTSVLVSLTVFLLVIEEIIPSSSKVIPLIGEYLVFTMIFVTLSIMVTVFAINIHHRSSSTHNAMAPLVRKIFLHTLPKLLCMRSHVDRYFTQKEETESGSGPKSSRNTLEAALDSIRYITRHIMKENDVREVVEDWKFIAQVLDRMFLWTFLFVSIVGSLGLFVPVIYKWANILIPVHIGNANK
T5 sequence (P30926 22-498, further chain): as the sequence (P30926 22-498) above
From the text: as §1, §2, §5, §6

[5] = target: T6, nAChR subtype alpha4beta2 (Homo sapiens, UniProt P17787+P43681); test: as above; assay type: cell-based; conditions: response relative to ACh response
T6 construct: expressed in transfected cells
T6 sequence (P43681 29-627 limits assumed): as the sequence (P43681 29-627 limits assumed) above
T6 sequence (P17787 26-502): as the sequence (P17787 26-502) above
From the text: as §1, §2, §5, §6

tear film [6] = test: hNGF concentration in tear film collected on Schirmer test strips (ELISA), with and without intranasal varenicline; assay type: in vivo, Dutch-Belted rabbits; conditions: rabbits given rAAV9.hNGF intralacrimally; intranasal varenicline on days 21, 28 and 41
Protocol: FIG. 8 is a plot showing the concentration of hNGF in tear film in animals treated with AAV.hNGF and varenicline. Protein concentration was measured using Schirmer tear strips to collect tear film from Dutch-belted rabbits at the indicated number of days following intralacrimal administration of AAV2.hNGF, AAV5.hNGF, or AAV9.hNGF. At days 21, 28, and 41, tear film was collected following the intranasal administration of the tear inducing agent, varenicline. Control animals had no injection of AAV.
A Schirmer tear test was performed to collect eye moisture from the animals on Days 7, 14, 21, 28, 41, and 42. Test strips were placed inside the lower eyelid for approximately 1 minute. The paper was removed and placed into separate tubes and frozen at −80° C. for subsequent analysis. Schirmer test strips were collected following intranasal administration of varenicline on Days 21, 28, and 41. Test strips were placed inside the lower eyelid for approximately 1 minute. The paper was removed and placed into separate tubes and frozen at −80° ° C. for subsequent analysis. Protein content absorbed onto Schirmer's test strips was analyzed for concentration of hNGF by ELISA assay.
A Schirmer tear test was performed to collect eye moisture from the animals on Days 7, 14, 21, 28, 41, and 42. […] Protein content absorbed onto Schirmer's test strips was analyzed for concentration of hNGF by ELISA assay.

[7] = target: T7, nAChR subtype alpha6beta2 (Homo sapiens, UniProt P17787+Q15825); test: nAChR agonist response (evoked current compared with ACh response) in cells expressing a nAChR subtype; assay type: cell-based; conditions: response relative to ACh response
T7 construct: expressed in transfected cells
T7 sequence (Q15825 26-494): as the sequence (Q15825 26-494) above
T7 sequence (P17787 26-502): as the sequence (P17787 26-502) above
From the text: as §1, §2, §3, §4

tear film [8] = test: Mesoscale discovery (MSD) assay of hNGFβ in porcine tears after lacrimal gland transduction; assay type: in vivo, pigs (Sus scrofa domesticus); conditions: pigs given AAV9-hNGFβ; Day 28 (0.03 mg varenicline solution each nostril) vs Day 21 and Day 35 (no nasal spray); data not shown
subjects with dry eye = conditions: 28-day course of 0.1% ophthalmic formulation, Phase II; cited from earlier work

T1 sequence (P32297 32-505): as the sequence (P32297 32-505) above
T1 sequence (P17787 26-502): as the sequence (P17787 26-502) above

| Molecule | agonist characterization at nAChR subtype alpha3beta2 [1] | agonist characterization at nAChR subtype alpha7 (nAChR subtype alpha7) | agonist characterization at nAChR subtype alpha4alpha6beta2 [2] | agonist characterization at nAChR subtype alpha3beta4 [3] | agonist characterization at nAChR subtype alpha3alpha5beta4 [4] | agonist characterization at nAChR subtype alpha4beta2 [5] | increase of hNGF concentration in the Schirmer strip over the levels measured at the 7 and 14 day collections (tear film [6]) | agonist characterization at nAChR subtype alpha6beta2 [7] | effect of nasal spray on tear hNGFβ protein concentration (tear film [8]) | percent of the maximal ACh-evoked current (nAChR subtype alpha7; 300 micromolar concentration, subtype alpha7) [%] | effect on corneal staining (subjects with dry eye) | effect on ocular discomfort (subjects with dry eye) |
| --- | --- | --- | --- | --- | --- | --- | --- | --- | --- | --- | --- | --- |
| C(=C\[C@H]1CCNC1)/c1cncnc1 [Compound 1, (R)-5-((E)-2-pyrrolidin-3-ylvinyl)pyrimidine] | partial agonist | weak partial agonist | full agonist | full agonist | full agonist | full agonist |  |  |  |  |  |  |
| O=C(O)C(O)C(O)C(=O)O.c1cnc2cc3c(cc2n1)C1CNCC3C1 [Varenicline, varenicline] |  | full agonist | partial agonist | partial agonist | partial agonist | partial agonist | up to 3 fold | partial agonist | increased tear hNGFβ protein concentration |  |  |  |
| C(=C\[C@H]1CCNC1)/c1cncnc1.O=C(O)CC(O)(CC(=O)O)C(=O)O [compound 1 citrate, (R)-5-((E)-2-pyrrolidin-3-ylvinyl)pyrimidine mono-citrate] |  |  |  |  |  |  |  |  |  | 25 |  |  |
| Tβ4: 43-amino acid peptide, SEQ ID NO: 26; tested as 0.1% Tβ4 ophthalmic formulation (SDKPDMAEIEKFDKSKLKKTETQEKNPLPSKETIEQEKQAGES; listed as Homo sapiens) |  |  |  |  |  |  |  |  |  |  | significant positive effects | significant positive effects |

From US20240226109A1, “CO-THERAPY WITH VECTOR AND NICOTINIC AGONIST” (OYSTER POINT PHARMA, INC., priority 2021, published 2024)
